In patent US20120082736A1, “Small-molecule TNF modulator to reduce the side effects of chemotherapy and radiotherapy” (GeneBlue Corporation, priority 2010, published 2012):
Entries after “also recorded” stand apart in the source; their conditions may differ.

Key:
BDF1 mice = assay: Add-on study: does UTL-5g increase platelet count by itself (Example 3); type: in vivo
Method: (§1) Gp 1: medium (saline). Gp 2: saline followed by cisplatin (2.5 mg/kg) 30 min later. Gp 3: UTL-5g (15 mg/kg) followed by cisplatin 30 min later. Gp 4: UTL-5g (30 mg/kg) followed by cisplatin (2.5 mg/kg) 30 min later. Gp 5: UTL-5g (60 mg/kg) followed by cisplatin (2.5 mg/kg) 30 min later. Gp 6: amifostine (200 mg/kg) followed by cisplatin (2.5 mg/kg) 30 min later. Gp 7: saline followed by cisplatin (5 mg/kg) 30 min later. Gp 8: UTL-5g (60 mg/kg) followed by medium (saline) 30 min later. Gp 1-Gp 6 were daily ×5, but Gp 7 was by single dose on day 0 only. StDev is shown for each Gp (n=5 for each group except n=4 for Gp 7). * P<0.05, ** p<0.005 vs. medium control by Student's t-t (two-tailed).
To further investigate whether UTL-5g by itself would increase platelet count, the following small add-on study was conducted: • Gp 1: medium (saline) followed by medium (saline) 30 min later (same as Gp 1 before) • Gp 2: medium (saline) followed by cisplatin (2.5 mg/kg) 30 min later (same as Gp 2 before) • Gp 5: UTL-5g (60 mg/kg) followed by cisplatin (2.5 mg/kg) 30 min later (Same as Gp 5 before) • Gp 8: UTL-5g alone (60 mg/kg) followed by medium (saline) 30 min later (New Gp)

[1] = test system: BDF1 female mice treated with cisplatin; assay: Effect of pretreatment on BUN/creatinine, AST/ALT, WBC/platelet in blood of cisplatin-treated mice (Example 2); type: in vivo; settings: daily ×5, blood day 6
Method: Gp 1: medium (saline). Gp 2: saline followed by cisplatin (2.5 mg/kg) 30 min later. Gp 3: UTL-5g (15 mg/kg) followed by cisplatin (2.5 mg/kg) 30 min later. Gp 4: UTL-5g (30 mg/kg) followed by cisplatin (2.5 mg/kg) 30 min later. Gp 5: UTL-5g (60 mg/kg) followed by cisplatin (2.5 mg/kg) 30 min later. Gp 6: amifostine (200 mg/kg) followed by cisplatin (2.5 mg/kg) 30 min later; Gp 7: saline followed by cisplatin (5 mg/kg) 30 min later. Gp 1-Gp 6 were daily ×5, but Gp 7 was by single dose on day 0 only. StDev is shown for each Gp (n=5 for each group except for Gp 7, n=3). ** two-tailed p<0.005 vs medium control by Student's t-test.
as §1, with “Gp” for “Gp 8: UTL-5g (60 mg/kg) followed by medium (saline) 30 min later. Gp”, “control (Gp 1)” for “control”, “t-test” for “t-t”
as §1, with “Gp” for “Gp 8: UTL-5g (60 mg/kg) followed by medium (saline) 30 min later. Gp”, “p<0.005, *** p<0.0005” for “p<0.005”, “t-test” for “t-t”
BDF1 female mice (average wt ˜20 g/mouse) were randomly divided into the following groups (5 mice per group) and each treated daily ×5 (starting from day 0) by ip injection (0.25 mL/mouse), except in Gp 7, each was treated by a single dose ip injection (0.25 mL/mouse) on day 0 only, as described below • Gp 1: medium (saline) followed by medium (saline) 30 min later • Gp 2: medium (saline) followed by cisplatin (2.5 mg/kg) 30 min later • Gp 3: UTL-5g (15 mg/kg) followed by cisplatin (2.5 mg/kg) 30 min later • Gp 4: UTL-5g (30 mg/kg) followed by cisplatin (2.5 mg/kg) 30 min later • Gp 5: UTL-5g (60 mg/kg) followed by cisplatin (2.5 mg/kg) 30 min later • Gp 6: amifostine (200 mg/kg) followed by cisplatin (2.5 mg/kg) 30 min later • Gp 7: medium (saline) followed by cisplatin (5 mg/kg) 30 min later (single dose on Day 0 only)
Preparation of the test samples are described below: • Cisplatin: Cisplatin was dissolved in saline (0.2 and 0.4 mg/mL in saline) for 2.5 and 5 mg/kg ip injection. • UTL-5g: The stock solution of UTL-5g was first dissolved in DMSO and equal volume of Cremophor/propylene glycol (60/40 v/v) was added to make a stock solution. Immediately before the injection, saline was added to this temporary solution at a 90:10 v/v ratio and mixed thoroughly. Three concentrations for ip injection were prepared (1.25, 2.5, and 5 mg/mL) so that the doses are equivalent to 15, 30, and 60 mg/kg with a 0.25 mL injection. • Amifostine: The stock solution of amifostine was dissolved in saline to the desired concentration (16 mg/mL) for the 200 mg/kg injection.
Cardiac puncture was used to obtain blood from each mouse on day 6. To assess liver/kidney protection by UTL-5g, all blood samples were analyzed for BUN, creatinine, AST, and ALT by the chemistry lab at Henry Ford Health System. Unopette® (Becton Dickinson, Franklin Lakes, N.J.) diluting systems and a hemocytometer were used to assess the effect of UTL-5g on WBC and platelet counts in blood.

[2] = UTL-5g 15, 30, 60 mg/kg ip 30 min before cisplatin 2.5 mg/kg
[3] = ip 30 min before cisplatin 2.5 mg/kg, UTL-5g 15, 30, 60 mg/kg, amifostine 200 mg/kg

## Cc1cc(C(=O)Nc2ccc(Cl)cc2Cl)no1 [UTL-5g]
BDF1 mice; UTL-5g 60 mg/kg followed 30 min later by cisplatin 2.5 mg/kg or by saline
  platelet count: significantly increased platelet count
BDF1 mice; UTL-5g 60 mg/kg followed by cisplatin 2.5 mg/kg or saline
  WBC, protective effect: no significant protective effect
BDF1 mice; UTL-5g alone 60 mg/kg followed by saline, mice not treated by cisplatin
  platelet production, UTL-5g by itself: stimulated the production of platelets; also recorded: increased platelet counts
[1]; UTL-5g 60 mg/kg ip 30 min before cisplatin 2.5 mg/kg
  platelet count relative to control: > 3 times of the control
[1]; [2]
  ALT levels, effect of pretreatment: also reduced by UTL-5g; also recorded: lowered the elevated levels
  AST levels, effect of pretreatment: reduced by UTL-5g; also recorded: lowered the elevated levels
[1]; UTL-5g ip 30 min before cisplatin 2.5 mg/kg
  WBC count, effect of pretreatment: did not significantly increase the WBC count
[1]; [3]
  BUN levels, effect of pretreatment: suppressed by UTL-5g in a dose-dependent manner; also recorded: lowered the elevated levels
  creatinine, effect of pretreatment: Essentially the same results; also recorded: lowered the elevated levels
[1]; ip 30 min before cisplatin 2.5 mg/kg, UTL-5g 15, 30, 60 mg/kg, amifostine 200 mg/kg, vs Gp 1 (Control)
  platelet count, effect of pretreatment: increased platelet count in a dose-dependent manner
